# Legend:
# Dihydrofolate reductase [1] = target: T1, Dihydrofolate reductase (Rattus norvegicus, UniProt Q920D2)
# T1 sequence (Q920D2 whole entry): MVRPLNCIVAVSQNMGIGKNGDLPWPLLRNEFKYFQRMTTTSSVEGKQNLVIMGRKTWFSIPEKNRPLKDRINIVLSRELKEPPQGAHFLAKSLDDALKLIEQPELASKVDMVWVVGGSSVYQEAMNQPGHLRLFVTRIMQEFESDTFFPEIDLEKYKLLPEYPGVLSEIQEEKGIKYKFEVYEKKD
# Description: Inhibitory activity against dihydrofolate reductase (DHFR) from rat liver
# [2] = target: T2, Bifunctional dihydrofolate reductase-thymidylate synthase (Toxoplasma gondii, UniProt Q07422)
# T2 sequence (Q07422 whole entry): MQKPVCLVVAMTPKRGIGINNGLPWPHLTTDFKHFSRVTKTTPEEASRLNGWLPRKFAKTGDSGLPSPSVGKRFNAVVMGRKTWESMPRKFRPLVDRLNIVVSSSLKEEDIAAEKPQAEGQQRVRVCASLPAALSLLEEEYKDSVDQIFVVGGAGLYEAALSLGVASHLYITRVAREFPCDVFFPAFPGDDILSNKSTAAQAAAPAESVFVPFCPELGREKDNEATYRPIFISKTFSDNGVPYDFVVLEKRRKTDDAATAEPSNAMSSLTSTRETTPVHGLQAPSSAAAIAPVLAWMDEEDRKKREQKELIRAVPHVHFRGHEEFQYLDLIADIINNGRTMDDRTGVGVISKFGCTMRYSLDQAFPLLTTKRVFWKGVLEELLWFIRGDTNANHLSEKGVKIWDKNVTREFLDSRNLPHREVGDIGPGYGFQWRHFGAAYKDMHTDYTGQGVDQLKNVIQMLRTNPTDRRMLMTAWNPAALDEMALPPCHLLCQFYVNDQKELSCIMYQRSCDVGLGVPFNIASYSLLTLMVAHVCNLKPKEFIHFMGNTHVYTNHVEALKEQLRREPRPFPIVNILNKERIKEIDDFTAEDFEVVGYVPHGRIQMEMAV
# Description: Inhibitory activity against dihydrofolate reductase (DHFR) from Toxoplasma gondii
# CAKI-1 = assay: inhibition of the growth of renal cancer(CAKI-1) cell line; format: functional; details: Homo sapiens
# RPMI-8226 [3] = assay: Inhibition of the growth of leukemia (RPMI-8226) cell line at 0.01 uM; format: functional; details: Homo sapiens
# A549 [4] = assay: inhibition of the growth of non-small-cell lung cancer (A549/ATCC) cell line; format: functional; details: Homo sapiens
# 786-0 = assay: inhibition of the growth of renal cancer(786-0) cell line; format: functional; details: Homo sapiens
# NCI/ADR-RES [5] = assay: Inhibition of the growth of breast cancer (MCF7/ADR-RES) cell line at 0.01 uM; format: functional; details: Homo sapiens
# NCI-H322M = assay: inhibition of the growth of non-small-cell lung cancer (NCI-H322M) cell line; format: functional; details: Homo sapiens
# NCI-H23 = assay: inhibition of the growth of non-small-cell lung cancer (NCI-H23) cell line; format: functional; details: Homo sapiens
# OVCAR-8 [6] = assay: Inhibition of the growth of ovarian cancer(OVCAR-8) cell line at 0.01 uM; format: functional; details: Homo sapiens
# HCT-15 [7] = assay: inhibition of the growth of colon cancer(HCT-15) cell line; format: functional; details: Homo sapiens
# UO-31 = assay: inhibition of the growth of renal cancer(UO-31) cell line; format: functional; details: Homo sapiens
# NCI-H460 [8] = assay: Inhibition of the growth of non-small-cell lung cancer (NCI-H460) cell line at 0.01 uM; format: functional; details: Homo sapiens
# IGROV-1 [9] = assay: Inhibition of the growth of ovarian cancer(IGROVI) cell line at 0.01 uM; format: functional; details: Homo sapiens
# NCI-H460 [10] = assay: inhibition of the growth of non-small-cell lung cancer (NCI-H460) cell line; format: functional; details: Homo sapiens
# MCF7 = assay: inhibition of the growth of breast cancer (MCF-7) cell line; format: functional; details: Homo sapiens
# SF-539 = assay: inhibition of the growth of CNS cancer(SF-539) cell line; format: functional; details: Homo sapiens
# SNB-19 = assay: inhibition of the growth of CNS cancer(SNB-19) cell line; format: functional; details: Homo sapiens
# MDA-N [11] = assay: Inhibition of the growth of breast cancer(MDA-N) cell line at 0.01 uM; format: functional; details: Homo sapiens
# MDA-N [12] = assay: inhibition of the growth of breast cancer(MDA-N) cell line; format: functional; details: Homo sapiens
# M14 = assay: inhibition of the growth of melanoma cancer (M14) cell line; format: functional; details: Homo sapiens
# IGROV-1 [13] = assay: inhibition of the growth of ovarian cancer(IGROVI) cell line; format: functional; details: Homo sapiens
# HCT-116 [14] = assay: inhibition of the growth of colon cancer(HCT116) cell line; format: functional; details: Homo sapiens
# OVCAR-8 [15] = assay: inhibition of the growth of ovarian cancer(OVCAR-8) cell line; format: functional; details: Homo sapiens
# MDA-MB-435 [16] = assay: Inhibition of the growth of breast cancer (MDA-MB-435) cell line at 0.01 uM; format: functional; details: Homo sapiens
# KM12 = assay: inhibition of the growth of colon cancer(KM-12) cell line; format: functional; details: Homo sapiens
# Dihydrofolate reductase [17] = target: T3, Dihydrofolate reductase (Pneumocystis carinii, UniProt P16184)
# T3 sequence (P16184 whole entry): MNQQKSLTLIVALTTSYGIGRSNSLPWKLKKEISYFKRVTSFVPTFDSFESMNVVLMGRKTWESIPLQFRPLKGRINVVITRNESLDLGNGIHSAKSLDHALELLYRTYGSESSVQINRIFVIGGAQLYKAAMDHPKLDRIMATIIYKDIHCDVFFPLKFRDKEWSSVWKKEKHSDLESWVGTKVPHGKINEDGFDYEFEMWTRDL
# Description: Inhibitory activity against dihydrofolate reductase (DHFR) from Pneumocystis carinii
# SK-MEL-5 [18] = assay: Inhibition of the growth of melanoma cancer (SK-MEL-5) cell line at 0.01 uM; format: functional; details: Homo sapiens
# HCT-116 [19] = assay: Inhibition of the growth of colon cancer(HCT116) cell line at 0.01 uM; format: functional; details: Homo sapiens
# NCI/ADR-RES [20] = assay: inhibition of the growth of breast cancer (MCF7/ADR-RES) cell line; format: functional; details: Homo sapiens
# MDA-MB-435 [21] = assay: inhibition of the growth of breast cancer (MDA-MB-435) cell line; format: functional; details: Homo sapiens
# RPMI-8226 [22] = assay: inhibition of the growth of leukemia (RPMI-8226) cell line; format: functional; details: Homo sapiens
# MOLT-4 = assay: inhibition of the growth of leukemia (MOLT-4) cell line; format: functional; details: Homo sapiens
# SF-295 [23] = assay: Inhibition of the growth of CNS cancer(SF-295) cell line at 0.01 uM; format: functional; details: Homo sapiens
# HCT-15 [24] = assay: Inhibition of the growth of colon cancer(HCT-15) cell line at 0.01 uM; format: functional; details: Homo sapiens
# NCI-H522 = assay: inhibition of the growth of non-small-cell lung cancer (NCI-H522) cell line; format: functional; details: Homo sapiens
# A549 [25] = assay: Inhibition of the growth of non-small-cell lung cancer (A549/ATCC) cell line at 0.01 uM; format: functional; details: Homo sapiens
# SR = assay: inhibition of the growth of leukemia(SR) cell line; format: functional; details: Homo sapiens
# SF-295 [26] = assay: inhibition of the growth of CNS cancer(SF-295) cell line; format: functional; details: Homo sapiens
# SF-268 = assay: inhibition of the growth of CNS cancer(SF-268) cell line; format: functional; details: Homo sapiens
# SK-MEL-5 [27] = assay: inhibition of the growth of melanoma cancer (SK-MEL-5) cell line; format: functional; details: Homo sapiens
# DU-145 = assay: inhibition of the growth of prostate cancer(DU-145) cell line; format: functional; details: Homo sapiens
smiles,measurement,setting,value
COc1ccccc1Nc1ccc2nc(N)nc(N)c2n1,IC50,Dihydrofolate reductase [1],260 nM
same,IC50,[2],460 nM
CN(c1ccccc1)c1ccc2nc(N)nc(N)c2n1,GI50,CAKI-1,10 nM
same,inhibition at 0.01 µM,RPMI-8226 [3],59%
same,GI50,A549 [4],< 10 nM
same,GI50,786-0,220 nM
same,inhibition at 0.01 µM,NCI/ADR-RES [5],83%
same,GI50,NCI-H322M,70 nM
same,GI50,NCI-H23,30 nM
same,inhibition at 0.01 µM,OVCAR-8 [6],91%
same,GI50,HCT-15 [7],< 10 nM
same,IC50,Dihydrofolate reductase [1],1.3 nM
same,GI50,UO-31,30 nM
same,inhibition at 0.01 µM,NCI-H460 [8],80%
same,inhibition at 0.01 µM,IGROV-1 [9],53%
same,GI50,NCI-H460 [10],< 10 nM
same,GI50,MCF7,140 nM
same,GI50,SF-539,< 10 nM
same,GI50,SNB-19,40 nM
same,inhibition at 0.01 µM,MDA-N [11],68%
same,GI50,MDA-N [12],< 10 nM
same,GI50,M14,10 nM
same,GI50,IGROV-1 [13],< 10 nM
same,IC50,[2],2.2 nM
same,GI50,HCT-116 [14],< 10 nM
same,GI50,OVCAR-8 [15],< 10 nM
same,inhibition at 0.01 µM,MDA-MB-435 [16],73%
same,GI50,KM12,190 nM
same,IC50,Dihydrofolate reductase [17],99.5 nM
same,inhibition at 0.01 µM,SK-MEL-5 [18],59%
same,inhibition at 0.01 µM,HCT-116 [19],80%
same,GI50,NCI/ADR-RES [20],< 10 nM
same,GI50,MDA-MB-435 [21],< 10 nM
same,GI50,RPMI-8226 [22],< 10 nM
same,GI50,MOLT-4,60 nM
same,inhibition at 0.01 µM,SF-295 [23],59%
same,inhibition at 0.01 µM,HCT-15 [24],66%
same,GI50,NCI-H522,60 nM
same,inhibition at 0.01 µM,A549 [25],65%
same,GI50,SR,50 nM
same,GI50,SF-295 [26],< 10 nM
same,GI50,SF-268,10 nM
same,GI50,SK-MEL-5 [27],< 10 nM
same,GI50,DU-145,120 nM
